# Data published in US9750742B2, “Small molecular inhibitors of RAD51 recombinase and methods thereof” (Drexel University, priority 2011, dated 2017).
# Entries after “also recorded” stand apart in the source; their conditions may differ.
# How the values were obtained:
# RAD54 = biological target: T1, RAD54 (Homo sapiens, UniProt Q92698); assay: DNA branch migration assay for RAD54; format: biochemical; conditions: 0 to 200 μM
# T1 construct: made in house
# T1 sequence (Q92698 1-747): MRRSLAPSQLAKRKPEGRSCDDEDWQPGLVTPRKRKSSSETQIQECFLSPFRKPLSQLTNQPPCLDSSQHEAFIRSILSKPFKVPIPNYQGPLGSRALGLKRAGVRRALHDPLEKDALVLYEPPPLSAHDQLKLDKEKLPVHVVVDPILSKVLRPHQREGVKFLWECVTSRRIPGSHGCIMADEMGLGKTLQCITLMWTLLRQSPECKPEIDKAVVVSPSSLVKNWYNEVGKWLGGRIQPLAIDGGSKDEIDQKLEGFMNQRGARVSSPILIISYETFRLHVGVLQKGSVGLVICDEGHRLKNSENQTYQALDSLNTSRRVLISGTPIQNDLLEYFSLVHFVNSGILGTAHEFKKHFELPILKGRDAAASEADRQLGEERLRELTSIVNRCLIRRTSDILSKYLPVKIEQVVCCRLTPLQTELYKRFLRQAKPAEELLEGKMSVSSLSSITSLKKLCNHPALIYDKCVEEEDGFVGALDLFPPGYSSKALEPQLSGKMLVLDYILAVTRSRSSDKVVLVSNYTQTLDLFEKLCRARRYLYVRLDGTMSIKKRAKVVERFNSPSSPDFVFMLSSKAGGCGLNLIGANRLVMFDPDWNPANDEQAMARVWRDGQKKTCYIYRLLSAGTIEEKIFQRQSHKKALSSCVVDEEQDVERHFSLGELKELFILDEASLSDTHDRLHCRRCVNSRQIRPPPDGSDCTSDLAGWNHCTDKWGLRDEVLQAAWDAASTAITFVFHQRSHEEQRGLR
# Protocol: The partial Holliday junction (PX-junction), in which one of the four DNA arms is single-stranded (FIG. 6A), was used as a substrate for the 4-stranded branch migration promoted by RAD54 (Mazina et al., 2007, J. Biol. Chem. 282:21068-80). […] To produce PX-junctions, tailed DNA (Oligo 170, SEQ ID NO:9; Oligo 171, SEQ ID NO:10) (1.45 μM, molecules) was annealed with ^32P-labeled fork DNA (Oligo 71, SEQ ID NO:7; Oligo 169, SEQ ID NO:8) (1.33 μM, molecules) in branch migration buffer containing 25 mM Tris acetate, pH 7.5, 3 mM magnesium acetate, 2 mM ATP, 1 mM dithiothreitol, 100 μg ml^−1 bovine serum albumin, 10 U ml^−1 creatine phosphokinase, 15 mM creatine phosphate for 10 min at 37° C. and then for 10 min at 30° C. Then, branch migration was initiated immediately by addition of the RAD54 (100 nM) to PX-junctions (33 nM, molecules) in branch migration buffer and was carried out at 30° C. […] The DNA products were deproteinized by treatment with stop buffer (1.4% (w/v) SDS, 960 μg ml^−1 proteinase K, 7.5% (w/v) glycerol, 0.015% (w/v) bromphenol blue) for 5 min at 22° C. and analyzed by electrophoresis in 8% (w/v) polyacrylamide gels (29:1) in 1×TBE buffer (89 mM Tris borate, pH 8.3, and 1 mM EDTA) at 22° C. The gels were dried on DE81 chromatography paper (Whatman, Kent, UK) and quantified using a Storm 840 PhosphorImager (Molecular Dynamics, Piscataway, N.J.).
# [1] = test system: DR-GFP reporter system in 293 human embryonic kidney (HEK) cells; assay: DR-GFP assay for homologous recombination in human cells; format: cell-based; conditions: B02 20 μM; non-treatment cells 3.28%
# Protocol: 293 HEK cells expressing DR-GFP were grown until the log phase. […] Then a 200 μl mixture containing 2 μg of pCBASce supercoiled plasmid DNA encoding I-SceI rare-cutting restriction endonuclease (Richardson et al., 1998, Genes Dev. 12:3831-42) and 6 μl of GenDrill™ transfection reagent (BamaGen BioScience LLC) in Opti-MEM® I Reduced-Serum (Invitrogen) was added to each well. After 2 days incubation, cells were trypsinized and diluted to density of 200 cells/μl in PBS (10 mM Na2HPO4, 1.76 mM KH2PO4, 137 mM NaCl and 2.7 mM KCl, pH 7.4) for Fluorescence Activated Cell Sorting (FACS) analysis on a Guava EasyCyte Plus System (Millipore, Billerica, Mass.).
# MEF cells = assay: Clonogenic survival assay, MEF; format: cell-based, mouse
# Protocol: Briefly, MEF cells were trypsinized and the appropriate number of cells was replated on 10 cm tissue culture dishes. […] Cells were fixed and stained using staining solution (0.05% crystal violet, 50% methanol in PBS); colonies were counted using an AlphaImager 3400 (Alpha Innotech Inc.). The percent of survival was determined as described (Hall & Giccia, 2005, “Radiobiology for the Radiologist”, 6th Ed., Philadelphia, Pa.: Lippincott Williams & Wilkins, pp. 30-45). The percent of survival obtained from untreated cells was normalized to 100% survival.
# RecA = biological target: T2, RecA (Escherichia coli, UniProt P0A7G6); assay: Branch migration assay, RecA; format: biochemical, E. coli; conditions: B02 10-100 μM
# T2 construct: purchased USB Inc. (Cleveland, Ohio)
# Protocol: Branch migration was initiated by addition of ^32P-labeled 5′-joint molecules (0.1 nM, molecules) that were produced by RecA-promoted reaction and was carried out for 30 min. The DNA products were deproteinized and analyzed in 1.5% agarose-TAE gels and quantified using a Storm 840 PhosphorImager (GE Healthcare).
# RAD51 = biological target: T3, RAD51 (Homo sapiens, UniProt Q06609); assay: B02 binding to RAD51 by SPR; conditions: absence of ATP
# T3 construct: made in house
# T3 sequence (Q06609 1-339): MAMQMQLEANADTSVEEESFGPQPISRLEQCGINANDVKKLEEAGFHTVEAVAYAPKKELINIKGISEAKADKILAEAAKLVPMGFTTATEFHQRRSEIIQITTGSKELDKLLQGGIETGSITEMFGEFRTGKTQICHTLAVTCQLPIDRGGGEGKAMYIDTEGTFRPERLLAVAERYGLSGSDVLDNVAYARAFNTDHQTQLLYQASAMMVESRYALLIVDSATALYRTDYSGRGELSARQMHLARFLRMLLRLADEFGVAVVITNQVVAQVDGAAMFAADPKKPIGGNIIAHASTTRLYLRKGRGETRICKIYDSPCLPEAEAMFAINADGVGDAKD
# Protocol: Data were analyzed using the ProteOn Manager Software version 3.0 (Bio-Rad).
# T2 sequence (P0A7G6 whole entry): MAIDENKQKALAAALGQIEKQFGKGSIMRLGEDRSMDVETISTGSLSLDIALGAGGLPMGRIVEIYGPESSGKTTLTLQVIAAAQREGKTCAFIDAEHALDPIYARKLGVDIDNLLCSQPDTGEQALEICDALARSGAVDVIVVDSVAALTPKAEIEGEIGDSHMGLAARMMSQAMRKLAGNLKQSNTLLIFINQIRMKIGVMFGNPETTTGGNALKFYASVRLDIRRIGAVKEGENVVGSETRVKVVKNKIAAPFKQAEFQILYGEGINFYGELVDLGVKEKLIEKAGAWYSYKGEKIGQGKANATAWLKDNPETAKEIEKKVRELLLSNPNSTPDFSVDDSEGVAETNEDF
compound,measurement,setting,value
"O=c1c2ccccc2nc(/C=C/c2cccnc2)n1Cc1ccccc1 [Compound B02, (E)-3-benzyl-2-(2-(pyridin-3-yl)vinyl)quinazolin-4(3H)-one]","inhibition of RAD54 branch migration, in words",RAD54,not to significantly inhibit
same,yield of GFP positive cells (I-SceI-induced),[1],0.40%
same,sensitivity to cisDDP (cisplatin) and MMC,MEF cells; B02 5 μM,more sensitive
same,sensitivity to MMS,MEF cells; B02 5 μM co-treatment with MMS,enhancement of sensitivity
same,sensitivity to MMS,MEF cells; B02 5 μM plus AZD2281 1 μM versus AZD2281 only,more sensitive
same,increase in sensitivity to MMC,"MEF cells; B02 5 μM, MMC 1 μM",fivefold
same,increase in sensitivity to cisplatin,"MEF cells; B02 5 μM, cisplatin 32 μM",approximately 17 fold
same,"cellular viability, B02 alone","MEF cells; up to 5 μM, wild type MEF",No decrease of cellular viability; also recorded: did not have a substantial effect
same,inhibition of branch migration activity of RecA,RecA,did not inhibit
same,kd,RAD51,2.5 (±0.3)×10^−2 s^−1
